What all share (experiment): relative viability (nuclei count vs DMSO), 5 days (fraction); higher = more cells survive
Compound in assay [1]: COc1cc(N2CCC(N3CCN(C)CC3)CC2)ccc1Nc1ncc(Cl)c(Nc2ccccc2S(=O)(=O)C(C)C)n1 [NVP-TAE684] + COc1cccc2cc(-c3nc([C@H]4CC[C@H](C(=O)O)CC4)n4ncnc(N)c34)[nH]c12 [OSI-027] (partner 0.5 µM)
The method, boiled down: (§1)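 Cells from lung cancer lines were seeded into 1536-well plates and, one day later, dosed by pin tool. Treatments were either a single drug or a fixed dose of an anchor drug with five library-drug doses (not always all listed) in √10 steps. After 5 days, nuclei were stained in a one-step fixation (final 0.05% Triton X-100, 1% formaldehyde, 1 ug/ml Hoechst) and counted on 4× images, and relative viability is the treated-to-vehicle nuclei ratio, as the median of duplicate plates.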

Compound in assay [2]: COc1cc(N2CCC(N3CCN(C)CC3)CC2)ccc1Nc1ncc(Cl)c(Nc2ccccc2S(=O)(=O)C(C)C)n1 [NVP-TAE684] + NC(=O)Nc1cc(-c2cccc(F)c2)sc1C(=O)N[C@H]1CCCNC1 [AZD7762] (partner 0.2 µM)
The method, boiled down:
as §1

Compound in assay [3]: COc1cc2/c(=N/c3ccc(Br)cc3F)nc[nH]c2cc1OCC1CCN(C)CC1 [Vandetanib] + Cc1cc(Nc2cc(N3CCN(C)CC3)nc(Sc3ccc(NC(=O)C4CC4)cc3)n2)n[nH]1 [Tozasertib] (partner 0.1 µM)
The method, boiled down:
as §1

Compound in assay [4]: COc1cc2/c(=N/c3ccc(Br)cc3F)nc[nH]c2cc1OCC1CCN(C)CC1 [Vandetanib] + Nc1ncn([C@H]2C[C@H](O)[C@@H](CO)O2)c(=O)n1 [Decitabine] (partner 2 µM)
In outline: as §1

Regarding NCI-H522, the relative viability in assay [1] (first compound 0.6325 µM) is 0.702; in assay [1] (first compound 2 µM), 0.554; in assay [2] (first compound 0.2 µM), 0.91; in assay [2] (first compound 0.6325 µM) it was 0.938; in assay [2] (first compound 2 µM) it was 0.744; in assay [3] (first compound 0.02 µM) it was 0.588. The relative viability in assay [3] (first compound 0.06325 µM) came to 0.57; in assay [3] (first compound 0.2 µM), 0.593; in assay [3] (first compound 0.6325 µM), 0.621; in assay [3] (first compound 2 µM) it was 0.597; in assay [4] (first compound 0.02 µM), 0.619; in assay [4] (first compound 0.06325 µM), 0.691. Also, the figures for the relative viability in assay [4] (first compound 0.2 µM), in assay [4] (first compound 0.6325 µM) and in assay [4] (first compound 2 µM) were 0.717, 0.768 and 0.646, respectively.
With NCI-H596, the relative viability came out at 0.903 in assay [1] (first compound 0.2 µM); 0.689 in assay [1] (first compound 0.6325 µM); 0.509 in assay [1] (first compound 2 µM); 1.03 in assay [2] (first compound 0.2 µM); 0.988 in assay [2] (first compound 0.6325 µM); 0.839 in assay [2] (first compound 2 µM). In addition, the relative viability in assay [3] (first compound 0.02 µM) was found to be 0.922; in assay [3] (first compound 0.06325 µM), 0.706; in assay [3] (first compound 0.2 µM), 0.688; in assay [3] (first compound 0.6325 µM), 1.03; in assay [3] (first compound 2 µM) it was 0.898; in assay [4] (first compound 0.02 µM) it was 0.986. In addition, the relative viability in assay [4] (first compound 0.06325 µM) was 0.98; in assay [4] (first compound 0.2 µM), 0.983; in assay [4] (first compound 0.6325 µM), 0.979; in assay [4] (first compound 2 µM) it was 0.978.
For NCI-H647, the relative viability in assay [1] (first compound 0.2 µM) is 0.692; in assay [1] (first compound 0.6325 µM), 0.58; in assay [1] (first compound 2 µM), 0.417; in assay [2] (first compound 0.2 µM), 0.41; in assay [2] (first compound 0.6325 µM), 0.408; in assay [2] (first compound 2 µM) it was 0.201. Besides, the relative viability in assay [3] (first compound 0.02 µM) stood at 0.265; in assay [3] (first compound 0.06325 µM), 0.2; in assay [3] (first compound 0.2 µM), 0.141; in assay [3] (first compound 0.6325 µM), 0.221; in assay [3] (first compound 2 µM), 0.255; in assay [4] (first compound 0.02 µM), 0.356. Moreover, the relative viability came to 0.396 in assay [4] (first compound 0.06325 µM), 0.349 in assay [4] (first compound 0.2 µM), 0.35 in assay [4] (first compound 0.6325 µM) and 0.41 in assay [4] (first compound 2 µM).
Turning to NCI-H650, the relative viability in assay [1] (first compound 0.2 µM) came out at 0.441; in assay [1] (first compound 0.6325 µM), 0.458; in assay [1] (first compound 2 µM), 0.332; in assay [2] (first compound 0.2 µM) it was 1.03; in assay [2] (first compound 0.6325 µM) it was 0.848; in assay [2] (first compound 2 µM), 0.853. The relative viability in assay [3] (first compound 0.02 µM) was 0.732; in assay [3] (first compound 0.06325 µM) it was 0.69; in assay [3] (first compound 0.6325 µM), 0.809; in assay [3] (first compound 2 µM) it was 0.723; in assay [4] (first compound 0.02 µM), 0.354; in assay [4] (first compound 0.06325 µM), 0.324. For the same cell line, the relative viability in assay [4] (first compound 0.2 µM) stood at 0.322; in assay [4] (first compound 0.6325 µM) it was 0.351; in assay [4] (first compound 2 µM), 0.329.
In the case of NCI-H727, the relative viability in assay [1] (first compound 0.2 µM) was 0.68; in assay [1] (first compound 0.6325 µM), 0.411; in assay [1] (first compound 2 µM) it was 0.372; in assay [2] (first compound 0.2 µM) it was 0.588; in assay [2] (first compound 0.6325 µM) it was 0.58; in assay [2] (first compound 2 µM), 0.344. In addition, the relative viability in assay [3] (first compound 0.02 µM) worked out at 0.689; in assay [3] (first compound 0.06325 µM), 0.498; in assay [3] (first compound 0.2 µM) it was 0.504; in assay [3] (first compound 0.6325 µM) it was 0.529; in assay [3] (first compound 2 µM) it was 0.488; in assay [4] (first compound 0.02 µM), 0.827. The relative viability in assay [4] (first compound 0.06325 µM) worked out at 0.798; in assay [4] (first compound 0.2 µM), 0.938; in assay [4] (first compound 0.6325 µM) it was 0.885; in assay [4] (first compound 2 µM), 0.492.
NCI-H838: the relative viability in assay [1] (first compound 0.2 µM) came to 0.389; in assay [1] (first compound 0.6325 µM), 0.324; in assay [1] (first compound 2 µM) it was 0.175; in assay [2] (first compound 0.6325 µM), 0.857; in assay [2] (first compound 2 µM), 0.853; in assay [3] (first compound 0.02 µM) it was 0.264. The relative viability in assay [3] (first compound 0.06325 µM) came to 0.273; in assay [3] (first compound 0.2 µM), 0.193; in assay [3] (first compound 0.6325 µM), 0.253; in assay [3] (first compound 2 µM), 0.229; in assay [4] (first compound 0.02 µM), 0.489; in assay [4] (first compound 0.06325 µM) it was 0.399. Further, the relative viability was determined as 0.503 in assay [4] (first compound 0.2 µM), 0.457 in assay [4] (first compound 0.6325 µM) and 0.451 in assay [4] (first compound 2 µM).
As to NCI-H1355, the relative viability in assay [1] (first compound 0.2 µM) is 0.423; in assay [1] (first compound 0.6325 µM), 0.325; in assay [1] (first compound 2 µM) it was 0.273; in assay [2] (first compound 0.2 µM), 0.862; in assay [2] (first compound 0.6325 µM), 0.691; in assay [2] (first compound 2 µM), 0.479. For the same cell line, the relative viability in assay [3] (first compound 0.02 µM) turned out to be 0.614; in assay [3] (first compound 0.06325 µM), 0.519; in assay [3] (first compound 0.2 µM), 0.562; in assay [3] (first compound 0.6325 µM), 0.494; in assay [3] (first compound 2 µM), 0.516; in assay [4] (first compound 0.02 µM), 0.351. Moreover, the relative viability in assay [4] (first compound 0.06325 µM) is 0.357; in assay [4] (first compound 0.2 µM) it was 0.369; in assay [4] (first compound 0.6325 µM) it was 0.339; in assay [4] (first compound 2 µM), 0.363.
For NCI-H1395, the relative viability in assay [1] (first compound 0.2 µM) was 0.712; in assay [1] (first compound 0.6325 µM) it was 0.482; in assay [1] (first compound 2 µM) it was 0.567; in assay [2] (first compound 0.2 µM), 0.417; in assay [2] (first compound 0.6325 µM) it was 0.367; in assay [2] (first compound 2 µM), 0.397. Further, the relative viability in assay [3] (first compound 0.02 µM) was found to be 0.752; in assay [3] (first compound 0.06325 µM) it was 0.753; in assay [3] (first compound 0.2 µM), 0.845; in assay [3] (first compound 0.6325 µM), 0.837; in assay [3] (first compound 2 µM) it was 0.723; in assay [4] (first compound 0.02 µM), 0.737. The relative viability is 0.704 in assay [4] (first compound 0.06325 µM), 0.655 in assay [4] (first compound 0.2 µM), 0.788 in assay [4] (first compound 0.6325 µM) and 0.74 in assay [4] (first compound 2 µM).
NCI-H1437: the relative viability was 0.79 in assay [1] (first compound 0.2 µM); 0.203 in assay [1] (first compound 2 µM); 1.21 in assay [2] (first compound 0.2 µM); 1.09 in assay [2] (first compound 0.6325 µM); 1.07 in assay [2] (first compound 2 µM); 0.408 in assay [3] (first compound 0.02 µM). The relative viability in assay [3] (first compound 0.06325 µM) came out at 0.402; in assay [3] (first compound 0.2 µM), 0.134; in assay [3] (first compound 0.6325 µM) it was 0.402; in assay [3] (first compound 2 µM), 0.389; in assay [4] (first compound 0.02 µM) it was 0.534; in assay [4] (first compound 0.06325 µM), 0.559. Further, the relative viability turned out to be 0.556 in assay [4] (first compound 0.2 µM), 0.551 in assay [4] (first compound 0.6325 µM) and 0.545 in assay [4] (first compound 2 µM).

The record behind these values is the supplement of paper PMC10307832.
